Columns and labels:
Assay type in all cases: cell-based
GP2D (KRAS G12D) = assay: Cell proliferation assay (CellTiter-Glo, 72 hours), GP2D; details: GP2d, 72 h, 384-well, CellTiter-Glo 2.0
Experimental: (§1) Two thousand KRAS mutant cells per well were seeded in 384-well white plate and then treated with indicated compounds for 72 hours at 37° C. and 5% CO2. Cell proliferation was measured using CellTiter-Glo 2.0 luciferase-based ATP detection assay (Promega, Madison, WI) following the manufacturer's protocol. IC50 values were determined using Prism software (GraphPad Software, San Diego, CA).

SW620 (KRAS G12V) = assay: Cell proliferation assay (CellTiter-Glo, 72 hours), SW620; details: Homo sapiens, SW-620, 72 h, 384-well, CellTiter-Glo 2.0
Experimental: as §1

AGS (G12D) = assay: Cell proliferation assay (CellTiter-Glo, 72 hours), AGS; details: 72 h, 384-well, CellTiter-Glo 2.0
Experimental: as §1

SMILES	IC50 (GP2D (KRAS G12D)) [µM]	IC50 (SW620 (KRAS G12V)) [µM]	IC50 (AGS (G12D)) [µM]
C#Cc1c(F)ccc2cc(O)cc(-c3nc4c5c(nc(OC[C@@]67CCCN6C[C@H](F)C7)nc5c3F)N3C[C@@H](O)CC[C@@H]3CO4)c12 [Example 94, (8aR,11S)-5-(8-ethynyl-7-fluoro-3-hydroxynaphthalen-1-yl)-4-fluoro-2-{[(2R,7aS)-2-fluorotetrahydro-1H-pyrrolizin-7a(5H)-yl]methoxy}-8,8a,9,10,11,12-hexahydro-7-oxa-1,3,6,12a-tetraazabenzo[4,5]cyclohepta[1,2,3-de]naphthalen-11-ol]	1.1	> 3	> 3
C#Cc1c(F)ccc2cc(O)cc(-c3nc4c5c(nc(OC[C@@]67CCCN6C[C@H](F)C7)nc5c3F)NC3(CC3)CO4)c12 [Example 95, 5-ethynyl-6-fluoro-4-(4′-fluoro-2′-{[(2R,7aS)-2-fluorotetrahydro-1H-pyrrolizin-7a(5H)-yl]methoxy}-8′H,10′H-spiro[cyclopropane-1,9′-[7]oxa[1,3,6,10]tetraazacyclohepta[1,2,3-de]naphthalen]-5′-yl)naphthalen-2-ol]	0.993	> 3	> 3
C#Cc1c(F)ccc2cc(O)cc(-c3nc4c5c(nc(OC[C@@]67CCCN6C[C@H](O)C7)nc5c3F)N3CCCC[C@H]3CO4)c12 [Example 97, (2R,7aS)-7a-({[(8aS)-5-(8-ethynyl-7-fluoro-3-hydroxynaphthalen-1-yl)-4-fluoro-8,8a,9,10,11,12-hexahydro-7-oxa-1,3,6,12a-tetraazabenzo[4,5]cyclohepta[1,2,3-de]naphthalen-2-yl]oxy}methyl)hexahydro-1H-pyrrolizin-2-ol]	0.916	1.18	0.385
CCc1c(F)ccc2cc(O)cc(-c3nc4c5c(nc(OC[C@@]67CCCN6C[C@H](F)C7)nc5c3F)N[C@H](CO)CO4)c12 [Example 100, 5-ethyl-6-fluoro-4-[(9R)-4-fluoro-2-{[(2R,7aS)-2-fluorotetrahydro-1H-pyrrolizin-7a(5H)-yl]methoxy}-9-(hydroxymethyl)-9,10-dihydro-8H-7-oxa-1,3,6,10-tetraazacyclohepta[1,2,3-de]naphthalen-5-yl]naphthalen-2-ol]	> 3	> 3	> 3
C#Cc1c(F)ccc2cc(O)cc(-c3nc4c5c(nc(OC[C@@]67CCCN6C[C@@H](O)C7)nc5c3F)N3CCCC[C@H]3CO4)c12 [Example 101, (2S,7aS)-7a-({[(8aS)-5-(8-ethynyl-7-fluoro-3-hydroxynaphthalen-1-yl)-4-fluoro-8,8a,9,10,11,12-hexahydro-7-oxa-1,3,6,12a-tetraazabenzo[4,5]cyclohepta[1,2,3-de]naphthalen-2-yl]oxy}methyl)hexahydro-1H-pyrrolizin-2-ol]	0.88	> 3	> 3
C#Cc1c(F)ccc2cc(O)cc(-c3nc4c5c(nc(OC[C@@]67CCCN6C[C@H](F)C7)nc5c3F)N[C@H]3CCC[C@H]3O4)c12 [Example 102, 5-ethynyl-6-fluoro-4-[(7aR,10aS)-4-fluoro-2-{[(2R,7aS)-2-fluorotetrahydro-1H-pyrrolizin-7a(5H)-yl]methoxy}-7a,8,9,10,10a,11-hexahydro-7-oxa-1,3,6,11-tetraazanaphtho[1,8-fg]azulen-5-yl]naphthalen-2-ol]	> 3	> 3	> 3
C#Cc1c(F)ccc2cc(O)cc(-c3nc4c5c(nc(OC[C@@]67CCCN6C[C@H](F)C7)nc5c3F)N3CC(F)CC[C@H]3CO4)c12 (stereo partly drawn) [Example 105, 4-[(4R,7S)-4,13-difluoro-16-[[(2R,8S)-2-fluoro-1,2,3,5,6,7-hexahydropyrrolizin-8-yl]methoxy]-9-oxa-2,11,15,17-tetrazatetracyclo[8.7.1.0^2,7.0^14,18]octadeca-1 (17),10 (18),11,13,15-pentaen-12-yl]-5-ethynyl-6-fluoro-naphthalen-2-ol]	0.0216	0.0862	0.081
C#Cc1c(F)ccc2cc(O)cc(-c3nc4c5c(nc(OC[C@@]67CCCN6C[C@H](F)C7)nc5c3F)N3C=CCC[C@H]3CO4)c12 [Example 107, 5-ethynyl-6-fluoro-4-[(7S)-13-fluoro-16-[[(2R,8S)-2-fluoro-1,2,3,5,6,7-hexahydropyrrolizin-8-yl]methoxy]-9-oxa-2,11,15,17-tetrazatetracyclo [8.7.1.0^2,7.0^14,18]octadeca-1 (17),3,10 (18),11,13,15-hexaen-12-yl]naphthalen-2-ol]	0.749	1.04	1.13
C#Cc1c(F)ccc2cc(O)cc(-c3nc4c5c(nc(OC[C@@]67CCCN6C[C@H](F)C7)nc5c3F)N(CC)CCO4)c12 [Example 108, 4-(10-ethyl-4-fluoro-2-{[(2R,7aS)-2-fluorotetrahydro-1H-pyrrolizin-7a(5H)-yl]methoxy}-9,10-dihydro-8H-7-oxa-1,3,6,10-tetraazacyclohepta[1,2,3-de]naphthalen-5-yl)-5-ethynyl-6-fluoronaphthalen-2-ol]	0.0138	0.195	0.0427
CCc1c(F)ccc2cc(O)cc(-c3nc4c5c(nc(OC[C@@]67CCCN6C[C@H](F)C7)nc5c3F)NCCC4)c12 [Example 117, 5-ethyl-6-fluoro-4-(4-fluoro-2-{[(2R,7aS)-2-fluorotetrahydro-1H-pyrrolizin-7a(5H)-yl]methoxy}-7,8,9,10-tetrahydro-1,3,6,10-tetraazacyclohepta[1,2,3-de]naphthalen-5-yl)naphthalen-2-ol]	> 3	> 3	> 3
C#Cc1c(F)ccc2cc(O)cc(-c3nc4c5c(nc(OC[C@@]67CCCN6C[C@H](F)C7)nc5c3F)N3C[C@@](C)(O)CC[C@H]3CO4)c12 [Example 120, (8aS,11S)-5-(8-ethynyl-7-fluoro-3-hydroxynaphthalen-1-yl)-4-fluoro-2-{[(2R,7aS)-2-fluorotetrahydro-1H-pyrrolizin-7a(5H)-yl]methoxy}-11-methyl-8,8a,9,10,11,12-hexahydro-7-oxa-1,3,6,12a-tetraazabenzo[4,5]cyclohepta[1,2,3-de]naphthalen-11-ol]	> 3	> 3	> 3
CCc1c(F)ccc2cc(O)cc(-c3nc4c5c(nc(OC[C@@]67CCCN6C[C@H](F)C7)nc5c3F)N(C)[C@@H](C)CO4)c12 [Example 123, 5-ethyl-6-fluoro-4-[(9S)-4-fluoro-2-{[(2R,7aS)-2-fluorotetrahydro-1H-pyrrolizin-7a(5H)-yl]methoxy}-9,10-dimethyl-9,10-dihydro-8H-7-oxa-1,3,6,10-tetraazacyclohepta[1,2,3-de]naphthalen-5-yl]naphthalen-2-ol]	0.0405	0.15	0.375
CCc1c(F)ccc2cc(O)cc(-c3nc4c5c(nc(OC[C@@]67CCCN6C[C@H](F)C7)nc5c3F)N[C@@H](CO)CO4)c12 [Example 124, 5-ethyl-6-fluoro-4-[(9S)-4-fluoro-2-{[(2R,7aS)-2-fluorotetrahydro-1H-pyrrolizin-7a(5H)-yl]methoxy}-9-(hydroxymethyl)-9,10-dihydro-8H-7-oxa-1,3,6,10-tetraazacyclohepta[1,2,3-de]naphthalen-5-yl]naphthalen-2-ol]	1.76	3.32	3.31
C#Cc1c(F)ccc2cc(O)cc(-c3nc4c5c(nc(OC[C@@]67CCCN6C[C@H](F)C7)nc5c3F)N(CC(F)F)[C@@H](C)CO4)c12 [Example 128, 4-[(9S)-10-(2,2-difluoroethyl)-4-fluoro-2-{[(2R,7aS)-2-fluorotetrahydro-1H-pyrrolizin-7a(5H)-yl]methoxy}-9-methyl-9,10-dihydro-8H-7-oxa-1,3,6,10-tetraazacyclohepta[1,2,3-de]naphthalen-5-yl]-5-ethynyl-6-fluoronaphthalen-2-ol]	0.00581	0.00631	0.0146
C#Cc1c(F)ccc2cc(O)cc(-c3nc4c5c(nc(OC[C@@]67CCCN6C[C@H](F)C7)nc5c3F)N(C)C3(CCOC3)CO4)c12 (stereo partly drawn) [Example 129, 5-ethynyl-6-fluoro-4-[6-fluoro-3-[[(2R,8S)-2-fluoro-1,2,3,5,6,7-hexahydropyrrolizin-8-yl]methoxy]-13-methyl-spiro[10-oxa-2,4,8,13-tetrazatricyclo[7.4.1.05,14]tetradeca-1,3,5,7,9 (14)-pentaene-12,3′-tetrahydrofuran]-7-yl]naphthalen-2-ol]	> 3	> 3	> 3
C#Cc1c(F)ccc2cc(O)cc(-c3nc4c5c(nc(OC[C@@]67CCCN6C[C@H](F)C7)nc5c3F)N(C[C@@H](C)O)[C@@H](C)CO4)c12 [Example 130, 5-ethynyl-6-fluoro-4-((S)-4-fluoro-2-(((2R,7aS)-2-fluorotetrahydro-1H-pyrrolizin-7a(5H)-yl)methoxy)-10-((R)-2-hydroxypropyl)-9-methyl-9,10-dihydro-8H-7-oxa-1,3,6,10-tetraazacyclohepta[de]naphthalen-5-yl)naphthalen-2-ol]	0.115	0.131	0.197
CCc1c(F)ccc2cc(O)cc(-c3nc4c5c(nc(OC[C@@]67CCCN6C[C@H](F)C7)nc5c3F)N(CC(F)F)[C@@H](C)CO4)c12 [Example 131, 4-[(9S)-10-(2,2-difluoroethyl)-4-fluoro-2-{[(2R,7aS)-2-fluorotetrahydro-1H-pyrrolizin-7a(5H)-yl]methoxy}-9-methyl-9,10-dihydro-8H-7-oxa-1,3,6,10-tetraazacyclohepta[1,2,3-de]naphthalen-5-yl]-5-ethyl-6-fluoronaphthalen-2-ol]	0.0239	0.0427	0.0653
